In PMC5903252 (British Journal of Clinical Pharmacology, 2018):

Assay: Plasma pharmacokinetics of BMS-962212 after IV infusion
Details: for clearance / Vd / half-life / AUC(0-inf) / AUC(0-t) / Cmax / Tmax: human, in vivo
[1] = part B 1 mg h^−1, Japanese ethnicity (n = 4), geometric mean (CV%)
[2] = part B 1 mg h^−1, Non-Japanese ethnicity (n = 4), geometric mean (CV%)
[3] = part B 3 mg h^−1, Japanese ethnicity (n = 4), geometric mean (CV%)
[4] = part B 3 mg h^−1, Non-Japanese ethnicity (n = 4), geometric mean (CV%)
[5] = part B 9 mg h^−1, Japanese ethnicity (n = 4), geometric mean (CV%)
[6] = part B 9 mg h^−1, Non-Japanese ethnicity (n = 4), geometric mean (CV%)
[7] = part B 20 mg h^−1, Japanese ethnicity (n = 4), geometric mean (CV%)
[8] = part B 20 mg h^−1, Non-Japanese ethnicity (n = 4), geometric mean (CV%)

`CN1CCN(c2cccc3c2CCN(C(=O)/C=C/c2c(-n4cnnn4)ccc(Cl)c2F)[C@@H]3C(=O)Nc2ccc(C(=O)O)cc2)C(=O)C1` [BMS‐962212] gave a clearance (iv, 1.5 mg h^−1, CL, part A 2-h IV infusion 1.5 mg h^−1, geometric mean (CV%)) of 276 mL/min, a Vd (iv, 1.5 mg h^−1, Vz, part A 2-h IV infusion 1.5 mg h^−1, geometric mean (CV%)) of 72.6 L and a half-life (iv, 1.5 mg h^−1, t1/2, part A 2-h IV infusion 1.5 mg h^−1, geometric mean (CV%)) of 2.04 h. The AUC(0-inf) (iv, 3 mg h^−1) was 21400 ng·h/mL, the AUC(0-t) (iv, 3 mg h^−1) was 21200 ng·h/mL and the Cmax (iv, 3 mg h^−1) was 202 ng/mL. It also gave a Tmax (iv, 3 mg h^−1) of 60 h, a clearance (iv, 3 mg h^−1, CL, part B 5-day IV infusion 3 mg h^−1, geometric mean (CV%)) of 280 mL/min and a Vd (iv, 3 mg h^−1, Vz, part B 5-day IV infusion 3 mg h^−1, geometric mean (CV%)) of 165 L. The half-life (iv, 3 mg h^−1, t1/2, part B 5-day IV infusion 3 mg h^−1, geometric mean (CV%)) was 6.22 h, the AUC(0-inf) (iv, 4 mg h^−1) was 377 ng·h/mL and the AUC(0-t) (iv, 4 mg h^−1) was 233 ng·h/mL. The Cmax (iv, 4 mg h^−1) was 182 ng/mL, the Tmax (iv, 4 mg h^−1) was 2 h and the clearance (iv, 4 mg h^−1, CL, part A 2-h IV infusion 4 mg h^−1, geometric mean (CV%)) was 358 mL/min. For the same molecule, the Vd (iv, 4 mg h^−1, Vz, part A 2-h IV infusion 4 mg h^−1, geometric mean (CV%)) was 118 L, the half-life (iv, 4 mg h^−1, t1/2, part A 2-h IV infusion 4 mg h^−1, geometric mean (CV%)) was 3.95 h and the AUC(0-inf) (iv, 9 mg h^−1) was 55500 ng·h/mL. It also gave an AUC(0-t) (iv, 9 mg h^−1) of 54800 ng·h/mL, a Cmax (iv, 9 mg h^−1) of 520 ng/mL and a Tmax (iv, 9 mg h^−1) of 36 h. The clearance (iv, 9 mg h^−1, CL, part B 5-day IV infusion 9 mg h^−1, geometric mean (CV%)) was 324 mL/min, the Vd (iv, 9 mg h^−1, Vz, part B 5-day IV infusion 9 mg h^−1, geometric mean (CV%)) was 216 L and the half-life (iv, 9 mg h^−1, t1/2, part B 5-day IV infusion 9 mg h^−1, geometric mean (CV%)) was 8.65 h. The AUC(0-inf) (iv, 10 mg h^−1) was 1050 ng·h/mL, the AUC(0-t) (iv, 10 mg h^−1) was 664 ng·h/mL and the Cmax (iv, 10 mg h^−1) was 505 ng/mL. For the same molecule, the Tmax (iv, 10 mg h^−1) was 2 h, the clearance (iv, 10 mg h^−1, CL, part A 2-h IV infusion 10 mg h^−1, geometric mean (CV%)) was 320 mL/min and the Vd (iv, 10 mg h^−1, Vz, part A 2-h IV infusion 10 mg h^−1, geometric mean (CV%)) was 126 L. It also gave a half-life (iv, 10 mg h^−1, t1/2, part A 2-h IV infusion 10 mg h^−1, geometric mean (CV%)) of 4.68 h, an AUC(0-inf) (iv, 20 mg h^−1) of 126000 ng·h/mL and an AUC(0-t) (iv, 20 mg h^−1) of 124000 ng·h/mL. For the same molecule, the Cmax (iv, 20 mg h^−1) was 1170 ng/mL, the Tmax (iv, 20 mg h^−1) was 60 h and the clearance (iv, 20 mg h^−1, CL, part B 5-day IV infusion 20 mg h^−1, geometric mean (CV%)) was 317 mL/min. It also gave a Vd (iv, 20 mg h^−1, Vz, part B 5-day IV infusion 20 mg h^−1, geometric mean (CV%)) of 219 L, a half-life (iv, 20 mg h^−1, t1/2, part B 5-day IV infusion 20 mg h^−1, geometric mean (CV%)) of 7.65 h and an AUC(0-inf) (iv, 25 mg h^−1) of 2730 ng·h/mL. The AUC(0-t) (iv, 25 mg h^−1) was 1740 ng·h/mL, the Cmax (iv, 25 mg h^−1) was 1120 ng/mL and the Tmax (iv, 25 mg h^−1) was 2 h. For the same molecule, the clearance (iv, 25 mg h^−1, CL, part A 2-h IV infusion 25 mg h^−1, geometric mean (CV%)) was 312 mL/min, the Vd (iv, 25 mg h^−1, Vz, part A 2-h IV infusion 25 mg h^−1, geometric mean (CV%)) was 129 L and the half-life (iv, 25 mg h^−1, t1/2, part A 2-h IV infusion 25 mg h^−1, geometric mean (CV%)) was 4.94 h. The clearance (iv, CL, range across panels, part A 2-h IV infusion) was 276 to 358 mL/min, the clearance (iv, CL, range across panels, part B 5-day IV infusion) was 280 to 324 mL/min and the Vd (iv, Vss, range across panels, 5-day IV infusion) was 164 to 218 L. It also gave a Vd (iv, Vz, range across panels, 2-h IV infusion) of 72 to 129 L, a half-life (t1/2 range over all dose groups, part B, Japanese subjects) of 6.42 to 8.28 h and a half-life (t1/2 range over all dose groups, part B, non-Japanese subjects) of 6.05 to 8.32 h. The “Steady‐state concentration” value [1] was 55.81 (20.5) ng ml ^−1, the “Weight‐corrected steady‐state concentration” value [1] was 4.21 (21.6) kg μg.ml ^−1 and the “Steady‐state concentration” value [2] was 49.88 (27.3) ng ml ^−1. The “Weight‐corrected steady‐state concentration” value [2] was 4.34 (15.5) kg μg.ml ^−1, the “Steady‐state concentration” value [3] was 188.03 (17.9) ng ml ^−1 and the “Weight‐corrected steady‐state concentration” value [3] was 14.33 (32.9) kg μg.ml ^−1. For the same molecule, the “Steady‐state concentration” value [4] was 157.76 (12.9) ng ml ^−1, the “Weight‐corrected steady‐state concentration” value [4] was 14.10 (22.7) kg μg.ml ^−1 and the “Steady‐state concentration” value [5] was 439.27 (18.9) ng ml ^−1. The “Weight‐corrected steady‐state concentration” value [5] was 29.60 (18.9) kg μg.ml ^−1, the “Steady‐state concentration” value [6] was 458.34 (18.9) ng ml ^−1 and the “Weight‐corrected steady‐state concentration” value [6] was 34.47 (23.5) kg μg.ml ^−1. For the same molecule, the “Steady‐state concentration” value [7] was 1161.68 (17.7) ng ml ^−1, the “Weight‐corrected steady‐state concentration” value [7] was 76.07 (30.1) kg μg.ml ^−1 and the “Steady‐state concentration” value [8] was 887.21 (23.3) ng ml ^−1. The “Weight‐corrected steady‐state concentration” value [8] was 70.57 (32.4) kg μg.ml ^−1 and the dose proportionality (parts A and B) was “demonstrated dose proportionality”.
